Measurements reported in PMC12481029, “Design, synthesis, antiproliferative assessments, and computational studies of new quinolin-2(1H)-ones as dual EGFR/HER-2 inhibitors” (Frontiers in Chemistry, 2025).
Where “and” joins values, the source holds several entries; their conditions need not be identical. Identical values can stand only once.

Experiments:
[1] = Cell viability assay (MTT), normal mammary cells; settings: human, MCF-10A normal mammary epithelial cells
Protocol: (§4) MTT assay was performed to investigate the effect of the synthesized compounds on mammary epithelial cells (MCF-10A). The cells were propagated in medium consisting of Ham's F-12 medium/ Dulbecco's modified Eagle's medium (DMEM) (1:1) supplemented with 10% foetal calf serum, 2 mM glutamine, insulin (10 μg/mL), hydrocortisone (500 ng/mL) and epidermal growth factor (20 ng/mL). Trypsin ethylenediamine tetra acetic acid (EDTA) was used to passage the cells after every 2-3 days. 96-well flat-bottomed cell culture plates were used to seed the cells at a density of 10^4 cells mL^-1. The medium was aspirated from all the wells of culture plates after 24 h followed by the addition of synthesized compounds (in 200 μL medium to yield a final concentration of 0.1% (v/v) dimethyl sulfoxide) into individual wells of the plates. Four wells were designated to a single compound. The plates were allowed to incubate at 37°C for 96 h. Afterwards, the medium was aspirated and 3-[4,5-dimethylthiazol-2-yl]-2,5-diphenyltetrazolium bromide (MTT) (0.4 mg/mL) in medium was added to each well and subsequently incubated for 3 h. The medium was aspirated and 150 μL dimethyl sulfoxide (DMSO) was added to each well. The plates were vortexed followed by the measurement of absorbance at 540 nm on a microplate reader.

[2] = test system: four human cancer cell lines (A-549, MCF-7, Panc-1, HT-29); assay: Antiproliferative assay, average over four cancer cell lines; assay type: cell-based; settings: for GI50: Homo sapiens, average IC50 over the four cancer cell lines; for Potency reduction (fold) compared to 3d (GI50): ratio to 3d GI50 = 41 nM
[3] = test system: breast (MCF-7) cancer cell line; assay: Antiproliferative assay, MCF-7; assay type: cell-based; settings: Homo sapiens, MCF7; read-out: Antiproliferative activity IC50 ± SEM, MCF-7
Excerpt: (§1) The MTT assay ([Al-Wahaibi et al., 2022]; [Mahmoud et al., 2023]) was employed to assess the antiproliferative effects of compounds 3a-h and 5a-g on four human cancer cell lines: colon (HT-29) cancer, pancreatic (Panc-1) cancer, lung (A-549) cancer, and breast (MCF-7) cancer cell lines. Erlotinib was applied as a reference. Table 1 presents the median inhibitory concentration (IC50) and average IC50 (GI50) values for each compound evaluated on the four cancer cell lines.
(§2) Compounds 3a-h and 5a-g were tested for their antiproliferative activities on four human cancer cell lines: colon (HT-29), pancreatic (Panc-1), lung (A-549), and breast (MCF-7) using the MTT assay ([Al-Wahaibi et al., 2022]; [Mahmoud et al., 2023]). Erlotinib was applied as a reference.
(§3) To explore the antiproliferative potential of compounds propidium iodide fluorescence assay was performed using different cell lines such as Panc-1 (pancreas cancer cell line), MCF-7 (breast cancer cell line), HT-29 (colon cancer cell line) and A-549 (epithelial cancer cell line), respectively. To calculate the total nuclear DNA, a fluorescent dye (propidium iodide, PI) is used which can attach to the DNA, thus offering a quick and precise technique. PI cannot pass through the cell membrane and its signal intensity can be considered as directly proportional to quantity of cellular DNA. Cells whose cell membranes are damaged or have changed permeability are counted as dead ones. The assay was performed by seeding the cells of different cell lines at a density of 3000-7500 cells/well (in 200μl medium) in culture plates followed by incubation for 24h at 37 °C in humidified 5%CO2/95% air atmospheric conditions. The medium was removed; the compounds were added to the plates at 10 μM concentrations (in 0.1% DMSO) in triplicates, followed by incubation for 48h. DMSO (0.1%) was used as control. After incubation, medium was removed followed by the addition of PI (25 μl, 50μg/mL in water/medium) to each well of the plates. At -80 °C, the plates were allowed to freeze for 24 h, followed by thawing at 25 °C. A fluorometer (Polar-Star BMG Tech) was used to record the readings at excitation and emission wavelengths of 530 and 620 nm for each well. The percentage cytotoxicity of compounds was calculated using the following formula: […]

[4] = test system: lung (A-549) cancer cell line; assay: Antiproliferative assay, A-549; assay type: cell-based; settings: Homo sapiens, A549; read-out: Antiproliferative activity IC50 ± SEM, A-549
Excerpt: as §1, §2, §3

[5] = test system: pancreatic (Panc-1) cancer cell line; assay: Antiproliferative assay, Panc-1; assay type: cell-based; settings: Homo sapiens, read-out: Antiproliferative activity IC50 ± SEM, Panc-1
Excerpt: as §1, §2, §3

[6] = test system: colon (HT-29) cancer cell line; assay: Antiproliferative assay, HT-29; assay type: cell-based; settings: Homo sapiens, read-out: Antiproliferative activity IC50 ± SEM, HT-29
HER-2 = HER-2 (Homo sapiens, UniProt P04626); assay: HER-2 inhibitory assay (ADP-Glo kinase assay)
HER-2, sequence (P04626 676-1255 limits assumed): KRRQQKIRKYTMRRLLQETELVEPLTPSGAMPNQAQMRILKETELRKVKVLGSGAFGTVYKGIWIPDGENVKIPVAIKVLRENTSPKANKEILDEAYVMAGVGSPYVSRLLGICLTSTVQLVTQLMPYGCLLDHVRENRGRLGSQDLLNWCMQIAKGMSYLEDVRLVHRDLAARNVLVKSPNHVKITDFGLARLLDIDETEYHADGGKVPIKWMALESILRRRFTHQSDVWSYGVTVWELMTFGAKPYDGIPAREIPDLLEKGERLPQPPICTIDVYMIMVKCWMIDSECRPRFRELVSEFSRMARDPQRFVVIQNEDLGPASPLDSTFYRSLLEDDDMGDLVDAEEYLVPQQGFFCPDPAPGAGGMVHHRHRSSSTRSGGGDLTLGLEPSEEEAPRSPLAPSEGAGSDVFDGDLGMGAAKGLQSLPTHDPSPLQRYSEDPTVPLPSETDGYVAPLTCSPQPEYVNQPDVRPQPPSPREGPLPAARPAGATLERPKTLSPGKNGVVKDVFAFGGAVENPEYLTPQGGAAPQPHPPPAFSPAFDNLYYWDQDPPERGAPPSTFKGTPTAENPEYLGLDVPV
Protocol: The ADP-Glo™ Kinase Assay was used for kinase activity detection, related kinases information: HER-2 (ab60866, Abcam), with a concentration of 100 ng/mL. Target compounds were dissolved in DMSO to obtain drug solutions with different concentrations, and the compound concentrations in the final reaction system (100 μL) were 1 nM, 20 nM, 40 nM, 80 nM, and 100 nM, respectively. 10μL of the solution containing compounds was transferred to a 96-well plate, then added 40 μL of 1 × kinase buffer (50 mM HEPES, pH 7.5) to each well, and mixed the mixture in the 96-well plate on a shaker for 10 min. Next, added 25 μL of ADP-Glo™ reagent to the above wells, mixed and incubated for another 40 min. Distributed 10 μL kinase detection reagent to the reaction and incubated for 30 min. Finally, the full-wavelength microplate reader was used to record the OD value.

EGFR = EGFR (Homo sapiens, UniProt P00533); assay: EGFR inhibitory assay (EGFR-TK test); settings: for IC50: EGFR inhibition IC50 ± SEM; for Fold less effective than erlotinib, EGFR inhibition: ratio to erlotinib IC50
EGFR, sequence (P00533 669-1210): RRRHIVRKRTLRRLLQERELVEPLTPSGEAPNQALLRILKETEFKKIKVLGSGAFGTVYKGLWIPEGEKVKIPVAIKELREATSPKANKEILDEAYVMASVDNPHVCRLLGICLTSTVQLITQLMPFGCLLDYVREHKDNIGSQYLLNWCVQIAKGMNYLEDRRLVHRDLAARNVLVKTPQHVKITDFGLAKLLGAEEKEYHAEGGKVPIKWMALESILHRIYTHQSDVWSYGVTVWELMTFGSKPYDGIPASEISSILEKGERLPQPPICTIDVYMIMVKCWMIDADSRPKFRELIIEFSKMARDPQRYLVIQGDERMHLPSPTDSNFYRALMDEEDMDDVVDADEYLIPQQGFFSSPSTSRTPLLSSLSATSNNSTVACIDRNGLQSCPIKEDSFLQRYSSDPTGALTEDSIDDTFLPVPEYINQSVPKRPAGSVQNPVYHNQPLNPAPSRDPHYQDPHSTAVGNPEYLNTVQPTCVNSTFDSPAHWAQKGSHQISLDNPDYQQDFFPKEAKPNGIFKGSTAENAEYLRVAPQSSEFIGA
Protocol: 5ʹ upstream to the EGFR sequence comprised a sequence that encoded (His)6. Sf-9 cells were infected for 72h for protein expression. The pellets of Sf-9 cells were solubilized in a buffer containing sodium vanadate (100 μM), aprotinin (10 μg/mL), triton (1%), HEPES buffer(50mM), ammonium molybdate (10 μM), benzamidine HCl (16 μg/mL), NaCl (10 mM),leupeptin (10 μg/mL) and pepstatin (10 μg/mL) at 0°C for 20 min at pH 7.4, followed by centrifugation for 20 min. To eliminate the nonspecifically bound material, a Ni-NTA super flow packed column was used to pass through and wash the crude extract supernatant first with 10mM and then with 100 mM imidazole. Histidine-linked proteins were first eluted with 250 and then with 500 mM imidazole subsequent to dialysis against NaCl (50 mM), HEPES (20 mM), glycerol (10%) and 1 μg/mL each of aprotinin, leupeptin and pepstatin for 120 min. The purification was performed either at 4 °C or on ice. To record autophosphorylation level, EGFR kinase assay was carried out on the basis of DELFIA/Time-Resolved Fluorometry. […] Each compound (10 μL) was incubated with recombinant enzyme (10 μL, 5 ng for EGFR, 1:80 dilution in 100 mM HEPES) for 10 min at 25 °C, subsequent to the addition of 5X buffer (10 μL, containing 2 mM MnCl2, 100 μM Na3VO4, 20 mM HEPES and 1 mM DTT) and ATP-MgCl2 (20 μL, containing 0.1 mM ATP and 50 mM MgCl2) and incubation for 1h. The negative and positive controls were included in each plate by the incubation of enzyme either with or without ATP-MgCl2. The liquid was removed after incubation and the plates were washed thrice using a wash buffer. The Europium-tagged antiphosphotyrosine antibody (75 μL, 400 ng) was added to each well followed by incubation of 1h and then washing of the plates using buffer. […] The autophosphorylation percentage inhibition by compounds was calculated using the following equation:
The majority of signals detected by antiphosphotyrosine antibody were from EGFR because the enzyme preparation contained low impurities.

in vitro = settings: human
Protocol: as §4

Bcl-2 = Bcl-2 level assay; settings: MCF-7 cells
Protocol: Mix all reagents thoroughly without foaming before use. Wash the microwells twice with approximately 300 μL Wash Buffer per well with thorough aspiration of microwell contents between washes. Take caution not to scratch the surface of the microwells. After the last wash, empty the wells and tap microwell strips on absorbent pad or paper towel to remove excess Wash Buffer. Use the microwell strips immediately after washing or place upside down on a wet absorbent paper for not longer than 15 minutes. […] Add 100 μL of Sample Diluent in duplicate to all standard wells and to the blank wells. […] Add 100 μL of Sample Diluent, in duplicate, to the blank wells. Add 80 μL of Sample Diluent, in duplicate, to the sample wells. Add 20 μL of each Sample, in duplicate, to the designated wells. Add 50 μL of diluted biotin-conjugate to all wells, including the blank wells. Cover with a plate cover and incubate at room temperature, on a microplate shaker at 100 rpm if available, for 2 hours. Remove plate cover and empty the wells. Wash microwell strips 3 times as described in step 2. Add 100 μL of diluted Streptavidin-HRP to all wells, including the blank wells. Cover with a plate cover and incubate at room temperature, on a microplate shaker at 100 rpm if available, for 1 hour. Remove plate cover and empty the wells. Wash microwell strips 3 times as described in step 2. […] Pipette 100 μl of mixed TMB Substrate Solution to all wells, including the blanks. Incubate the microwell strips at room temperature (18° to 25°C) for about 15 minutes, if available on a rotator set at 100 rpm. Avoid direct exposure to intense light. The point, at which the substrate reaction is stopped, is often determined by the ELISA reader. Many ELISA readers record absorbance only up to 2.0 O.D. Therefore, the color development within individual microwells must be watched by the person running the assay and the substrate reaction stopped before positive wells are no longer properly detectable. Stop the enzyme reaction by quickly pipetting 100 μL of Stop Solution into each well, including the blank wells. It is important that the Stop Solution is spread quickly and uniformly throughout the microwells to completely inactivate the enzyme. Results must be read immediately after the Stop Solution is added or within one hour if the microwell strips are stored at 2 - 8°C in the dark. Read absorbance of each microwell on a spectrophotometer using 450 nm as the primary wavelength.

Cytochrome C = Cytochrome C assay; settings: MCF-7 cells
Protocol: This lysate was diluted in Standard Diluent Buffer over the range of the assay and measured for cytochrome C content. (Cells are Plated in cells/well in a volume of 100µl complete growth medium + 100 µl of the tested compound + 50 µl of 1X biotin conjugated antibody+ 100 µl of 1X streptavidin-HRP+ 100 µL TMB substrate solution of per well in a 96-well plate for 24 hours before assay).

Caspase-9 = Caspase-9 activation assay; assay type: cell-based, human; settings: MCF-7 cells
Protocol: To elucidate the apoptotic mechanism of compounds 3d and 5a, whether via the intrinsic or extrinsic pathway, their impact on caspase-8 and caspase-9 was evaluated.
RPMI 1640 with 10% FBS was used to assist the cells grow at 37 °C, and then the cells were treated with the compounds being studied to check the activity of caspase-3, -8, and -9 ([Hisham et al., 2019]). Refer to Supplementary Appendix A.
Cells were obtained from American Type Culture Collection, cells were grown in RPMI 1640 containing 10% fetal bovine serum at 37°C, stimulated with the compounds to be tested for caspase8, and lysed with Cell Extraction Buffer. This lysate was diluted in Standard Diluent Buffer over the range of the assay and measured for human active caspase-8 content. (Cells are Plated in a density of 1.2 – 1.8 × 10,000 cells/well in a volume of 100µl complete growth medium + 100 ul of the tested compound per well in a 96-well plate for 24 hours before the enzyme assay for Tubulin.). The absorbance of each microwell was read on a spectro-photometer at 450 nm. A standard curve is prepared from 7human Caspase-8 standard dilutions and human Caspase-8 concentration determined.

Bax = Bax level assay; settings: MCF-7 cells
Protocol: Bring all reagents, except the human Bax-α Standard, to room temperature for at least 30 minutes prior to opening. The human Bax-α Standard solution should not be left at room temperature for more than 10 minutes. All standards, controls and samples should be run in duplicate. Refer to the Assay Layout Sheet to determine the number of wells to be used and put any remaining wells with the desiccant back into the pouch and seal the ziploc. Store unused wells at 4 °C. Pipet 100 μL of Assay Buffer into the S0 (0 pg/mL standard) wells. Pipet 100 μL of Standards #1 through #6 into the appropriate wells. Pipet 100 μL of the Samples into the appropriate wells. Tap the plate gently to mix the contents. Seal the plate and incubate at room temperature on a plate shaker for 1 hour at ~500 rpm. Empty the contents of the wells and wash by adding 400 μL of wash solution to every well. Repeat the wash 4 more times for a total of 5 washes. After the final wash, empty or aspirate the wells and firmly tap the plate on a lint free paper towel to remove any remaining wash buffer. Pipet 100 μL of yellow Antibody into each well, except the Blank. Seal the plate and incubate at room temperature on a plate shaker for 1 hour at ~500 rpm. Empty the contents of the wells and wash by adding 400 μL of wash solution to every well. Repeat the wash 4 more times for a total of 5 washes. After the final wash, empty or aspirate the wells and firmly tap the plate on a lint free paper towel to remove any remaining wash buffer. Add 100 μL of blue Conjugate to each well, except the Blank. Seal the plate and incubate at room temperature on a plate shaker for 30 minutes at ~500 rpm. Empty the contents of the wells and wash by adding 400 μL of wash solution to every well. Repeat the wash 4 more times for a total of 5 washes. After the final wash, empty or aspirate the wells and firmly tap the plate on a lint free paper towel to remove any remaining wash buffer. Pipet 100 μL of Substrate Solution into each well. Incubate for 30 minutes at room temperature on a plate shaker at ~500 rpm. Pipet 100 μL Stop Solution to each well. Blank the plate reader against the Blank wells, read the optical density at 450 nm. Calculate the average net Optical Density (OD) bound for each standard and sample by subtracting the average Blank OD from the average OD for each standard and sample. Using linear graph paper, plot the Average Net OD for each standard versus Bax concentration in each standard. Approximate a straight line through the points. The concentration of Bax in the unknowns can be determined by interpolation.

| GI50 [2] [nM] | Potency reduction (fold) compared to 3d (GI50) [2] | IC50 [3] [nM] | IC50 [4] [nM] | IC50 [5] [nM] | IC50 [6] [nM] | IC50 (HER-2) [nM] | IC50 (EGFR) | Fold less effective than erlotinib, EGFR inhibition (EGFR) | SMILES | viability at 4 days, 50 µM [1] [%] | viability at 4 days, 50 µM (in vitro) [%] | Bcl-2 Conc (Bcl-2) [ng/mL] | Cytochrome C Conc (Cytochrome C) [ng/mL] | Caspase-9 Conc (Caspase-9) [ng/mL] | Bax Conc (Bax) [pg/mL] | Bax Conc (Bax; listed as staurosporine) [pg/mL] |
| --- | --- | --- | --- | --- | --- | --- | --- | --- | --- | --- | --- | --- | --- | --- | --- | --- |
| 92 | at least 2.3 | 89 ± 8 | 92 ± 9 | 94 ± 9 | 94 ± 9 | – | – | – | Cc1ccc(S(=O)(=O)N/N=C/c2c(O)c3ccccc3n(C)c2=O)cc1 [Compound 3a, (E)-N'-((4-hydroxy-1-methyl-2-oxo-1,2-dihydroquinolin-3-yl)methylene)-4-methylbenzenesulfonohydrazide] | 90 | – | – | – | – | – | – |
| 56 | 1.4 | 52 ± 5 | 56 ± 5 | 56 ± 5 | 58 ± 5 | – | – | – | COc1ccc2[nH]c(=O)c(/C=N/NS(=O)(=O)c3ccc(C)cc3)c(O)c2c1 [Compound 3b, (E)-N'-((4-hydroxy-6-methoxy-2-oxo-1,2-dihydroquinolin-3-yl)methylene)-4-methyl benzenesulfonohydrazide] | 92 | – | – | – | – | – | – |
| 51 | 1.3 | 48 ± 4 | 50 ± 5 | 53 ± 5 | 52 ± 4 | 49 ± 3 | 95 nM and 99 nM | 1.2 | Cc1ccc(S(=O)(=O)N/N=C/c2c(O)c3cc(C)ccc3[nH]c2=O)cc1 [Compound 3c, (E)-N'-((4-hydroxy-6-methyl-2-oxo-1,2-dihydroquinolin-3-yl)methylene)-4-methylbenzenesulfonohydrazide] | 86 | – | – | – | – | – | – |
| 63 | – | 61 ± 6 | 62 ± 6 | 64 ± 6 | 64 ± 6 | – | – | – | CCn1c(=O)c(/C=N/NS(=O)(=O)c2ccc(C)cc2)c(O)c2ccccc21 [Compound 3e, (E)-N'-((1-Ethyl-4-hydroxy-2-oxo-1,2-dihydroquinolin-3-yl)methylene)-4-methyl benzenesulfonohydrazide] | 89 | – | – | – | – | – | – |
| 46 | – | 43 ± 4 | 46 ± 4 | 46 ± 4 | 48 ± 4 | 44 ± 3 | 99 nM and 95 nM | 1.2 | Cc1ccc(S(=O)(=O)N/N=C/c2c(O)c3cc(Cl)ccc3[nH]c2=O)cc1 [Compound 3f, (E)-N'-((6-chloro-4-hydroxy-2-oxo-1,2-dihydroquinolin-3-yl)methylene)-4-methyl benzenesulfonohydrazide] | 90 | – | – | – | – | – | – |
| 94 | at least 2.3 | 90 ± 9 | 94 ± 9 | 94 ± 9 | 96 ± 9 | – | – | – | Cc1ccc(S(=O)(=O)N/N=C/c2c(O)c3ccc(C)cc3[nH]c2=O)cc1 [Compound 3g, (E)-N'-((4-hydroxy-7-methyl-2-oxo-1,2-dihydroquinolin-3-yl)methylene)-4-methyl benzenesulfonohydrazide] | 87 | – | – | – | – | – | – |
| > 100 | at least 2.3 | > 100 | > 100 | > 100 | > 100 | – | – | – | Cc1ccc(S(=O)(=O)N/N=C/c2c(O)c3cccc(C)c3[nH]c2=O)cc1 [Compound 3h, (E)-N'-((4-hydroxy-8-methyl-2-oxo-1,2-dihydroquinolin-3-yl)methylene)-4-methyl benzenesulfonohydrazide] | 90 | – | – | – | – | – | – |
| – | – | – | – | – | – | – | – | – | CN[C@@H]1C[C@H]2O[C@@](C)([C@@H]1OC)n1c3ccccc3c3c4c(c5c6ccccc6n2c5c31)C(=O)NC4 [Staurosporine, reference compound] | – | – | 1.00 | 0.50 | 20 ± 1 | 290 ± 2 | 290 |

| SMILES | GI50 [2] [nM] | Potency reduction (fold) compared to 3d (GI50) [2] | IC50 [3] [nM] | IC50 [4] [nM] | IC50 [5] [nM] | IC50 [6] [nM] | IC50 (HER-2) [nM] | IC50 (EGFR) | Fold less effective than erlotinib, EGFR inhibition (EGFR) | viability at 4 days, 50 µM [1] [%] | viability at 4 days, 50 µM (in vitro) [%] | Bcl-2 Conc (Bcl-2) [ng/mL] | Cytochrome C Conc (Cytochrome C) [ng/mL] | Caspase-9 Conc (Caspase-9) [ng/mL] | Bax Conc (Bax) [pg/mL] | Bax Conc (Bax; listed as staurosporine) [pg/mL] |
| --- | --- | --- | --- | --- | --- | --- | --- | --- | --- | --- | --- | --- | --- | --- | --- | --- |
| Cc1ccc2[nH]c(=O)c(/C=N/Nc3ccc([N+](=O)[O-])cc3[N+](=O)[O-])c(O)c2c1 [Compound 5b, (E)-3-((2-(2,4-Dinitrophenyl)hydrazono)methyl)-4-hydroxy-6-methyl quinolin-2(1H)-one] | 53 | – | 50 ± 5 | 52 ± 5 | 54 ± 5 | 54 ± 5 | 56 ± 4 | 106 ± 7 nM | – | 90 | – | – | – | – | – | – |
| COc1ccc2[nH]c(=O)c(/C=N/Nc3ccc([N+](=O)[O-])cc3[N+](=O)[O-])c(O)c2c1 [Compound 5c, (E)-3-((2-(2,4-Dinitrophenyl)hydrazono)methyl)-4-hydroxy-6-methoxy quinolin-2(1H)-one] | 66 | – | 62 ± 6 | 65 ± 6 | 69 ± 6 | 68 ± 6 | – | – | – | – | 89 | – | – | – | – | – |
| Cc1cccc2c(O)c(/C=N/Nc3ccc([N+](=O)[O-])cc3[N+](=O)[O-])c(=O)[nH]c12 [Compound 5d, (E)-3-((2-(2,4-Dinitrophenyl)hydrazono)methyl)-4-hydroxy-8-methyl quinolin-2(1H)-one] | 72 | – | 67 ± 6 | 71 ± 7 | 74 ± 7 | 74 ± 7 | – | – | – | – | 92 | – | – | – | – | – |
| Cn1c(=O)c(/C=N/Nc2ccc([N+](=O)[O-])cc2[N+](=O)[O-])c(O)c2ccccc21 [Compound 5e, (E)-3-((2-(2,4-Dinitrophenyl)hydrazono)methyl)-4-hydroxy-1-methyl quinolin-2(1H)-one] | 76 | – | 74 ± 7 | 76 ± 7 | 76 ± 7 | 78 ± 7 | – | – | – | – | 87 | – | – | – | – | – |
| Cc1ccc2c(O)c(/C=N/Nc3ccc([N+](=O)[O-])cc3[N+](=O)[O-])c(=O)[nH]c2c1 [Compound 5f, (E)-3-((2-(2,4-Dinitrophenyl)hydrazono)methyl)-4-hydroxy-7-methyl quinolin-2(1H)-one] | 85 | – | 83 ± 8 | 85 ± 8 | 86 ± 8 | 86 ± 8 | – | – | – | – | 90 | – | – | – | – | – |
| O=c1[nH]c2ccc(Cl)cc2c(O)c1/C=N/Nc1ccc([N+](=O)[O-])cc1[N+](=O)[O-] [Compound 5g, (E)-6-Chloro-3-((2-(2,4-dinitrophenyl)hydrazono)methyl)-4-hydroxy quinolin-2(1H)-one] | 81 | – | 78 ± 7 | 81 ± 8 | 82 ± 8 | 82 ± 8 | – | – | – | – | 91 | – | – | – | – | – |
